Patent publication US20180008629A1, “Compositions and Methods for Treating NLRP3 Inflammasome-Related Diseases and Disorders” (priority 2015, published 2018)

Tests used:
AIM2 inflammasome = AIM2 inflammasome (Mus musculus, UniProt Q91VJ1); format: cell-based
NLRC4 = target: T1, NLRC4 (Mus musculus, UniProt Q3UP24); format: cell-based; settings: BMDMs infected with Salmonella typhimurium, 0, 1, 5, or 10 mM BHB
T1 construct: endogenous in cells; host or cells: mouse BMDMs infected with Salmonella typhimurium (SL1344)
T1 sequence (Q3UP24 whole entry): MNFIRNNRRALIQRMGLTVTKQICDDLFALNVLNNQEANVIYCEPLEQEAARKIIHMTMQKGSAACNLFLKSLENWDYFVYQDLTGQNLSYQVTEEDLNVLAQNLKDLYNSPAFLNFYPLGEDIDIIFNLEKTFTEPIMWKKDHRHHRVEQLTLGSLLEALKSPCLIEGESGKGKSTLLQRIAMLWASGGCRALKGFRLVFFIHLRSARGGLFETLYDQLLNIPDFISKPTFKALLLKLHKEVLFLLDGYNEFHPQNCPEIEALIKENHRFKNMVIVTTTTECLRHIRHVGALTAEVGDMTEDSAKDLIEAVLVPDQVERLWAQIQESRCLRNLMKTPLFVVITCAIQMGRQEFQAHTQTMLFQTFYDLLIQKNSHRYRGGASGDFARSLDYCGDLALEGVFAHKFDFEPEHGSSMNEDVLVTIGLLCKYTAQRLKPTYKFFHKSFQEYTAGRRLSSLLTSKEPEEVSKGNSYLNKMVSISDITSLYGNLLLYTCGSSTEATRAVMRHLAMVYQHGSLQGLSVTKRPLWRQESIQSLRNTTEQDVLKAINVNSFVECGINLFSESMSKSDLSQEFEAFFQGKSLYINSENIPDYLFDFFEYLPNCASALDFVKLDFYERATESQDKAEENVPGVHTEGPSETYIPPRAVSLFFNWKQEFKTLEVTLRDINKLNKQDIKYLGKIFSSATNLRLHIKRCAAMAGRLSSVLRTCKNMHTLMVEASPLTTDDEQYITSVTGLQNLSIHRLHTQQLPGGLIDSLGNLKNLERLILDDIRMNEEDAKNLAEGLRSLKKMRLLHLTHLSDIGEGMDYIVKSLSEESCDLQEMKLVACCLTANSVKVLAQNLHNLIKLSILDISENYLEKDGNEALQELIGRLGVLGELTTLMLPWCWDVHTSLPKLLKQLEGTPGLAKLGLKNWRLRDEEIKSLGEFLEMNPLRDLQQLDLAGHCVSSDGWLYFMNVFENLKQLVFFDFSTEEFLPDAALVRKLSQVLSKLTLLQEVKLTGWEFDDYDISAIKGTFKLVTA

caspase-11 = test: Non-canonical inflammasome pathway, caspase-11 immunoblot in LPS treated BMDMs; format: cell-based, mouse; settings: BMDMs treated with LPS 4 h
ASC = target: T2, ASC (Mus musculus, UniProt Q9EPB4); test: ASC oligomerization and ASC speck formation in BMDMs; format: cell-based
T2 construct: endogenous in cells; host or cells: mouse BMDMs primed with LPS and stimulated with ATP
T2 sequence (Q9EPB4 1-193): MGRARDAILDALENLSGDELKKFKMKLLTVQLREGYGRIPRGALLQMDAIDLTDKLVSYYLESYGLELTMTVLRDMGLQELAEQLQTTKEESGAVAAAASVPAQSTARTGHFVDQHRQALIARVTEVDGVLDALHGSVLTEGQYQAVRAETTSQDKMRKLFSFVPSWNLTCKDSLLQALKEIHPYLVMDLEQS
Protocol: The ASC oligomerization was performed using previously described methods (Yu et al., 2006, Cell. Death Differ. 13:236-249). BMDM were plated on chamber slides and allowed to attach overnight. The following day cells were primed with LPS and treated with ATP±BHB (10 mM) as described in the materials and methods. Cells were fixed with 4% paraformaldehyde followed by ASC (Enzo Lifesciences) and DAPI staining. ASC specks were quantified using ImageJ software. At least 5 distinct fields were analyzed and a minimum of 550 cells from each treatment condition were quantified. Data are shown as mean±SD and are representative of two independent experiments. Statistical differences were calculated by student's t-test.

H3 acetylation = H3 acetylation in LPS primed BMDMs (western blot); format: cell-based, mouse; settings: LPS primed BMDMs treated with ATP and BHB 1 h
Protocol: FIG. 5, comprising FIGS. 5A-5B, depicts data from experiments examining the mechanism of BHB's anti-inflammasome effects. FIG. 5A is a representative western blot analysis of caspase-1 in BMDMs primed with LPS for 4 hours and stimulated with 2DG, AICAR, Compound C and BHB for 1 h on indicated combinations. FIG. 5B is a representative western blot examining H3 acetylation in LPS primed BMDMs treated with ATP and S- or D-BHB (R-BHB) for 1 h.
The BMDM cell lysates were prepared using RIPA buffer and immediately snap frozen in liquid nitrogen. Samples were left on ice for 1 hour with vortexing every 10 min. Samples were then centrifuge at 14,000 g for 15 min, the supernatant was collected and the protein concentration was determined using the DC Protein Assay (Bio-RAD). The immunoblot analysis was performed using previously described methods (Vandanmagsar et al., 2011, Nat. Med. 17:179-188). The immune complexes were visualized by incubation with horseradish peroxidase-conjugated anti-rat or anti-rabbit secondary antibody (Amersham Biosciences). Immunoreactive bands were visualized by enhanced chemiluminescence (PerkinElmer Life Sciences).

human neutrophils = test: IL-1β secretion from human peripheral blood neutrophils (ELISA); format: cell-based; settings: peripheral blood neutrophils from adult (30-40 years) and old (65-75 years)
Protocol: BHB was also observed to inhibit IL1B production from human neutrophils irrespective of age. Peripheral blood neutrophils from adult (30-40 years) and old (65-75 years) were enriched and stimulated as indicated (FIG. 20). IL-1β secretion was measured in culture supernatants by ELISA. Data are expressed as mean±S.E.M (*p<0.01).

[1] = test system: neutrophil hyperactivation; test: MSU peritonitis model in old mice fed ketogenic diet; format: in vivo, mouse; settings: ketogenic diet one week prior to MSU challenge
Protocol: Old mice were fed a ketogenic diet for one week prior to MSU challenge to induce neutrophil infiltration and inflammasome activation (FIG. 16A). Body weights and blood BHB concentrations were measured daily. Four hours after MSU injection, total peritoneal cells were collected and analyzed by FACS to enumerate total neutrophil infiltration (FIG. 16B). Gene expression within peritoneal cells was measured by RT-PCR (FIG. 16C). Expression was normalized to Gapdh expression and data are represented as expression relative to adults. Data are pooled from two independent experiments (FIGS. 16B and 16C). Statistical differences were calculated by 2-way ANOVA (FIG. 16A) or 1-way ANOVA (FIG. 16B). […]
Mice were fed a ketogenic diet for 1 week prior to an increase in BHB levels and then infection or peritonitis was induced by injection of monosodium urate. Body weights and blood BHB concentrations were measured daily in old mice during ketogenic diet feeding, prior to MSU injection (FIG. 19A). […] The peritoneal cells were isolated and pro-inflammatory cytokine Il1b, Nlrp3 and Tnf gene expression was measured by RT-PCR (FIG. 19B). […] Blood BHB levels were measured in adult mice 24 hr post-infection with Staphylococcus aureus (FIG. 19C). Total cells collected from brocho-aleveolar lavage BAL fluid from lungs 24 hr post-infection were quantified (FIG. 19D). […]

AIM2 inflammasome, sequence (Q91VJ1 whole entry, looked up): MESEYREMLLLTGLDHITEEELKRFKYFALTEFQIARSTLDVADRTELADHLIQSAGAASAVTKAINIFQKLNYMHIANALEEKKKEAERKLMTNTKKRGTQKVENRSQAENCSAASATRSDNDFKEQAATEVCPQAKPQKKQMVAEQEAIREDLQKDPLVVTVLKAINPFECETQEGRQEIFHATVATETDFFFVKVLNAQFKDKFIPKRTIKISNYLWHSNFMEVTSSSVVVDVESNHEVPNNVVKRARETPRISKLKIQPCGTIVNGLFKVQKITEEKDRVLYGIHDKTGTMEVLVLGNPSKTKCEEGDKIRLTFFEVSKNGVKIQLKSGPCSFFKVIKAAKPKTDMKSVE

Q: How did the “AIM2 inflammasome induced IL-1β activation” value (AIM2 inflammasome) turn out when `CC(O)CC(=O)O` (stereo not drawn) [BHB, β-hydroxybutyrate] was run?
A: did not inhibit

Q: And the “NLRC4 mediated caspase-1 cleavage” value (NLRC4)?
A: did not inhibit

Q: What about the caspase-11 activation (caspase-11) of the same compound?
A: neither butyrate nor BHB blocks

Q: What about the “ASC oligomerization in response to NLRP3 ligand ATP” value (ASC; BMDMs primed with LPS (4 h), ATP and BHB 1 h, DSS cross-linked ASC) of the same compound?
A: prevented

Q: And the ASC speck formation (ASC; BMDMs, LPS+ATP, BHB (10 mM))?
A: prevented

Q: What about the “H3 acetylation in macrophages” value (H3 acetylation) of the same compound?
A: inducing

Q: And the “IL1B production from human neutrophils” value (human neutrophils)?
A: inhibit

Q: What about the “neutrophil hyperactivation in peritonitis” value [1] of the same compound?
A: prevented
